Data as given in ChEMBL document CHEMBL4007434, “Indazole-Based Covalent Inhibitors To Target Drug-Resistant Epidermal Growth Factor Receptor” (J Med Chem, 2017).
Active and inactive are the calls of the source. The rule behind the calls is not given here.

Assays:
[1] = target: T1, Epidermal growth factor receptor (Homo sapiens, UniProt P00533); assay: Ratio of Kinact to Ki for reversible inhibition of wild-type human N-terminal GST-tagged EGFR cytoplasmic domain (669 to 1210 end amino acid residues) expressed in baculovirus expression system
T1 sequence (P00533 whole entry, the tested form may be a part): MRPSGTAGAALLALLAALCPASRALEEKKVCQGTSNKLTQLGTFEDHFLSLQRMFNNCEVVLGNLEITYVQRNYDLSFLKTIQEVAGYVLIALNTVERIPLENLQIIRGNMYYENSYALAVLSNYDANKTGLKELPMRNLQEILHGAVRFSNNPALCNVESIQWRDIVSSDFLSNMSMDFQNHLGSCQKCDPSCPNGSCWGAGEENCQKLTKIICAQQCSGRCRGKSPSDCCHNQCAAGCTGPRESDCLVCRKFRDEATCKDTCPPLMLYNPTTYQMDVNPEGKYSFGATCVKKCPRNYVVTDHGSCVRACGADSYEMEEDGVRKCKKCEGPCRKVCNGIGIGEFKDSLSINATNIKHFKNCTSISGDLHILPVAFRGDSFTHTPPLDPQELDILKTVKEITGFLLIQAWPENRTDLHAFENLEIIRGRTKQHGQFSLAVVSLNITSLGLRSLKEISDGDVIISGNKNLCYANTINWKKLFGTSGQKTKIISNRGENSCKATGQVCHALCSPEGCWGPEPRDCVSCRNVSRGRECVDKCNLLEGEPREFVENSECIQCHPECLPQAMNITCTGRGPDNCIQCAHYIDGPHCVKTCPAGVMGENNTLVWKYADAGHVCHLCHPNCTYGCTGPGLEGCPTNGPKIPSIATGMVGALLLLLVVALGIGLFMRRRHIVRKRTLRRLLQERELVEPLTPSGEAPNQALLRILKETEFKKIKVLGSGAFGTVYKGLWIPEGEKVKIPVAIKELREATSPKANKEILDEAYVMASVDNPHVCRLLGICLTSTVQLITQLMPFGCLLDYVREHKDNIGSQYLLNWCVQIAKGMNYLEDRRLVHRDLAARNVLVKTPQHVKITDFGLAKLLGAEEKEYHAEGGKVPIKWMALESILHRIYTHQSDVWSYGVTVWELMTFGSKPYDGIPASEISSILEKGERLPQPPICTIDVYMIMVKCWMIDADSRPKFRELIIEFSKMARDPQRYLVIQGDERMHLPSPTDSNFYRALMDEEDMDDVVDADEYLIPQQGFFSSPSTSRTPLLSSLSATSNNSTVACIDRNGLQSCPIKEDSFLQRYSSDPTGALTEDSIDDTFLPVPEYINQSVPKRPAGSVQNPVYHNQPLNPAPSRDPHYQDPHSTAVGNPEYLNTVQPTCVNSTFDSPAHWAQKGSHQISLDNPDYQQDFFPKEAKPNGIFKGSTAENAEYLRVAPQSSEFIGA

[2] = test system: Epidermal growth factor receptor (Homo sapiens), P00533 [L858R,T790M]
Epidermal growth factor receptor (Homo sapiens), P00533 [L858R,T790M], sequence (P00533 whole entry T790M/L858R, looked up, the tested form may be a part): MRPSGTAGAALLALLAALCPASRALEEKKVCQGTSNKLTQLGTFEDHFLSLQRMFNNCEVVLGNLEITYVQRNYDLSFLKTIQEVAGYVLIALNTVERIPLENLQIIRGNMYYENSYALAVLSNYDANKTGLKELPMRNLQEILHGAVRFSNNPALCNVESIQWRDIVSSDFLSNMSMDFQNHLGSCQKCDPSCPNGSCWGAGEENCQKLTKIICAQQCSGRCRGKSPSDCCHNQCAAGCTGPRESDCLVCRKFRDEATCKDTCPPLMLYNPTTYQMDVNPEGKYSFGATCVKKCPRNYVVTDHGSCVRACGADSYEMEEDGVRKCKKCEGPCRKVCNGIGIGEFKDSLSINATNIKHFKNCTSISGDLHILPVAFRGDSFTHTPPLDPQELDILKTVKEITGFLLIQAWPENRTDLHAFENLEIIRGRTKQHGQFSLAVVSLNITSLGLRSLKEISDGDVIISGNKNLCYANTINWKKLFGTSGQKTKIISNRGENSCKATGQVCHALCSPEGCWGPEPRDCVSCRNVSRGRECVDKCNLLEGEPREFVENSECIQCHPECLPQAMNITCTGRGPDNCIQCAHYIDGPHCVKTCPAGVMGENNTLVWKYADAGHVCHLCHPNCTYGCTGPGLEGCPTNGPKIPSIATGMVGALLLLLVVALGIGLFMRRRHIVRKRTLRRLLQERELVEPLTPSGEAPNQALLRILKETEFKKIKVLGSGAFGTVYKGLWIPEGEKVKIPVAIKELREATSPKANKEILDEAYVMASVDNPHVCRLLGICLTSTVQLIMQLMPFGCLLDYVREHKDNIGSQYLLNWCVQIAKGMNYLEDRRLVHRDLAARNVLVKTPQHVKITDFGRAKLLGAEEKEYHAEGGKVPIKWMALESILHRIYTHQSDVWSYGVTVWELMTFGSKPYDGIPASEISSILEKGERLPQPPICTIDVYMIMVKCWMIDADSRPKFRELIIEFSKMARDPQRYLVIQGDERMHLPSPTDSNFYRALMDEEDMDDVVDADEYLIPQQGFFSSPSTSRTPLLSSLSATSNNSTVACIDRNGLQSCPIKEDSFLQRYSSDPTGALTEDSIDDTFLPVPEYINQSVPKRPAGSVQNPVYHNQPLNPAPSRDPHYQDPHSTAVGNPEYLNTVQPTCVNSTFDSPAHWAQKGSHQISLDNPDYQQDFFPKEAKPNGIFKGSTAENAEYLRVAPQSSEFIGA

[3] = target: T1, Epidermal growth factor receptor; assay: Reversible inhibition of wild-type human N-terminal GST-tagged EGFR cytoplasmic domain (669 to 1210 end amino acid residues) expressed in baculovirus expression system using TK peptide substrate preincubated for 2 to 90 mins followed by 6-fold dilution
[4] = test system: Epidermal growth factor receptor (Homo sapiens), P00533 [L858R,T790M]; conditions: 100 nM
[5] = test system: Epidermal growth factor receptor (Homo sapiens), P00533 [L858R,T790M,C797S]; assay: Inhibition of EGFR L858R/T790M/C797S triple mutant (unknown origin) by HTRF assay
[6] = target: T1, Epidermal growth factor receptor; assay: Inhibition of wild-type EGFR in human A431 cells assessed as reduction in cell viability after 96 hrs by CellTiterGlo assay; format: ADME, cell-based
[7] = target: Tyrosine-protein kinase BTK (Homo sapiens) (UniProt Q06187); assay: Inhibition of full-length recombinant human His-tagged cytoplasmic BTK expressed in baculovirus expression system at 1 uM by Z'-LYTE assay
Tyrosine-protein kinase BTK (Homo sapiens), sequence (Q06187 whole entry): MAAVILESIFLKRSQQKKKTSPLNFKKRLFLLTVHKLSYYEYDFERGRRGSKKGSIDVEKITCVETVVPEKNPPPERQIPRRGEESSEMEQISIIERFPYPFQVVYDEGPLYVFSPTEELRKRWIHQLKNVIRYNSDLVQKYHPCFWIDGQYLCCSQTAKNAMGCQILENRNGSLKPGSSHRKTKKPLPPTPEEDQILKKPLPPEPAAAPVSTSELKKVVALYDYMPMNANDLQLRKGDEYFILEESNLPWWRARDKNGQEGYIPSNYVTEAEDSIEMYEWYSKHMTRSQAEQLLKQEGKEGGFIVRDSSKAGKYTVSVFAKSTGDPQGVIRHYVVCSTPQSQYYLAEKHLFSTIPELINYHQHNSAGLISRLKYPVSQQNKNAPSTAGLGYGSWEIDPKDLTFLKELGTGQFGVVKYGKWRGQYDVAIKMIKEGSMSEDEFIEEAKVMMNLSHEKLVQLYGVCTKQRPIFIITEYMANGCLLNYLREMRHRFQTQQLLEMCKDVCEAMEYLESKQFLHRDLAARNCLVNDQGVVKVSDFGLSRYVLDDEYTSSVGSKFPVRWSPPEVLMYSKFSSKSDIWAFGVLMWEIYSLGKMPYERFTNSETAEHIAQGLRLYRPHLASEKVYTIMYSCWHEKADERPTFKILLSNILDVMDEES

[8] = test system: Epidermal growth factor receptor (Homo sapiens), P00533 [L858R]; conditions: 1 uM
Epidermal growth factor receptor (Homo sapiens), P00533 [L858R], sequence (P00533 whole entry L858R): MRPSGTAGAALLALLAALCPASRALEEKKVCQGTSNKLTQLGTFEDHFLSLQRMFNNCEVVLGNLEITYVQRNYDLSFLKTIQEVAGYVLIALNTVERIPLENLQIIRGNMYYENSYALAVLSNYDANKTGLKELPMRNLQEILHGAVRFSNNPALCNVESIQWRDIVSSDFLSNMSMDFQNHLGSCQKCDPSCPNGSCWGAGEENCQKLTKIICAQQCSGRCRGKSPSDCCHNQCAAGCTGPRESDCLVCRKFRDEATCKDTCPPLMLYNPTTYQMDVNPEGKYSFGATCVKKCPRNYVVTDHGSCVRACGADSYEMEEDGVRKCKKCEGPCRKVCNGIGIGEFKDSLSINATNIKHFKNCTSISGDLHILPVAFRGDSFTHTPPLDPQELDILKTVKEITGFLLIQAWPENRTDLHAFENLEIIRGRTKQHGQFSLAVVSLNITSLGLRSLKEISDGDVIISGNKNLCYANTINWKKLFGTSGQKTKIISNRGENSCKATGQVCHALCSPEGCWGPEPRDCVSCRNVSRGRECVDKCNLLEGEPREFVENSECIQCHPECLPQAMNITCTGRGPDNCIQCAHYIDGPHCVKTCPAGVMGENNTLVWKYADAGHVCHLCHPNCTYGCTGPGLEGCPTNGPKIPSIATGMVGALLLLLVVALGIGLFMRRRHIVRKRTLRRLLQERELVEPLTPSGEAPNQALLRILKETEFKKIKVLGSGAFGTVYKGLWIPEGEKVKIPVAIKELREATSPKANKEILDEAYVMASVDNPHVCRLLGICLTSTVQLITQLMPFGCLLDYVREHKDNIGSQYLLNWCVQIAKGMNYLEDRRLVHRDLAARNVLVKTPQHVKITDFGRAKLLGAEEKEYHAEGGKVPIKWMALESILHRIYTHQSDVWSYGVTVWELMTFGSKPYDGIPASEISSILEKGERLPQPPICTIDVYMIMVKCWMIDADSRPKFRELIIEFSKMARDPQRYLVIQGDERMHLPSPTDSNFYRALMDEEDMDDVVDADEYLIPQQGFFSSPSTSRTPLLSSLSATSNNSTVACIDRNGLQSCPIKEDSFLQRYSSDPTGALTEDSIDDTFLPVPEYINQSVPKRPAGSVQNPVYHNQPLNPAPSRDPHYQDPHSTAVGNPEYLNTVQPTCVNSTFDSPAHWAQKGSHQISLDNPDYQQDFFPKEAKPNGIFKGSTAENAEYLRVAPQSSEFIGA

[9] = target: Epidermal growth factor receptor (Homo sapiens, UniProt P00533, L858R)
[10] = target: T2, Cytoplasmic tyrosine-protein kinase BMX (Homo sapiens) (UniProt P51813); assay: Inhibition of full-length recombinant human His-tagged cytoplasmic BMX expressed in baculovirus expression system at 1 uM by Z'-LYTE assay
T2 sequence (whole entry): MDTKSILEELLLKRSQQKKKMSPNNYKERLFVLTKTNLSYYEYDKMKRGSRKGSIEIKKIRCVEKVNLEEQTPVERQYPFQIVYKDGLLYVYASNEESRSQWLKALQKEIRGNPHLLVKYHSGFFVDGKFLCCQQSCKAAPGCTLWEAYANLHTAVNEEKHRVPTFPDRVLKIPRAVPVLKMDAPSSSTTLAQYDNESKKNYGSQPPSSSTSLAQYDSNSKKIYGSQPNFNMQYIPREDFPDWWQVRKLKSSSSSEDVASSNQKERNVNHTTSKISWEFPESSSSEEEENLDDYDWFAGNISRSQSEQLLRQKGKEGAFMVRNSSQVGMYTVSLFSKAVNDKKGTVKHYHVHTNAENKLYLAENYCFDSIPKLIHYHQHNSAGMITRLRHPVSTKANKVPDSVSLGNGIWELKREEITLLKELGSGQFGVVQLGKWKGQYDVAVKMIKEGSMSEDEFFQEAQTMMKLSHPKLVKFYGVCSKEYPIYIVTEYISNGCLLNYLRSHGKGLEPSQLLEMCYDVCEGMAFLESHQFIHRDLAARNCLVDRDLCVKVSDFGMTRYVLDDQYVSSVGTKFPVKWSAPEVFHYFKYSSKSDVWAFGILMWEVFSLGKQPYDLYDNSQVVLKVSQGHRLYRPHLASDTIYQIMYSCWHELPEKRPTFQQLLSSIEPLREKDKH

[11] = test system: Epidermal growth factor receptor (Homo sapiens), P00533 [L858R,T790M]; conditions: 100 nM; remark: listed apart in the source
[12] = Stability in mouse plasma assessed as compound remaining at 5 uM after 1 hr by LCMS analysis; format: ADME, cell-free; conditions: read-out: Stability
[13] = target: Tyrosine-protein kinase Blk (Homo sapiens) (UniProt P51451); assay: Inhibition of full-length recombinant human His-tagged cytoplasmic BLK expressed in baculovirus expression system at 1 uM by Z'-LYTE assay
Tyrosine-protein kinase Blk (Homo sapiens), sequence (P51451 2-505 limits assumed): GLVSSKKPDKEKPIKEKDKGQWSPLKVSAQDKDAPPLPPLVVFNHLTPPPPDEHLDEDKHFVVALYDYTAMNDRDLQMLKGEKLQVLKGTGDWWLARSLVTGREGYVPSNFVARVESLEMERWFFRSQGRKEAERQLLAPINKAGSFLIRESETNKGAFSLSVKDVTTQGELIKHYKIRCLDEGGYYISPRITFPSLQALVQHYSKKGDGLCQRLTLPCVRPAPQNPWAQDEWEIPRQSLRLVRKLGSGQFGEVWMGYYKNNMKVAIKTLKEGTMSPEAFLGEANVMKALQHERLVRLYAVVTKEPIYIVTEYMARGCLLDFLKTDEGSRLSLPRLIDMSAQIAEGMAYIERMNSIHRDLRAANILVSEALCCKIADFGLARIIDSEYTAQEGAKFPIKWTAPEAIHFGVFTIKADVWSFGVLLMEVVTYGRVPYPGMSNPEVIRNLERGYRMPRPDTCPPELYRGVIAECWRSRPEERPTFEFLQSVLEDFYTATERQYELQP

[14] = target: Receptor tyrosine-protein kinase erbB-2 (Homo sapiens) (UniProt P04626); assay: Inhibition of ERBB2 (unknown origin) at 1 uM by Z'-LYTE assay

## C=CC(=O)Nc1cc(Nc2n[nH]c3cc(Nc4cccc(F)c4)ccc23)c(OC)cc1N(C)CCN(C)C
[1]
  kinact/KI: 470000 M⁻¹ s⁻¹
[2]
  Kinact: 0.17 min⁻¹
[3]
  Ki: 5.1 nM
[4]
  inhibition: Active
[5]
  inhibition: inactive
[6]
  EC50: 3100 nM
[7]
  inhibition: > 85%
[8]
  inhibition: > 95%
[9]
  IC50: < 1 nM
[10]
  inhibition: > 85%
[11]
  inhibition: Active
[12]
  remaining at 1 h, 5 µM: > 90%
[13]
  inhibition: > 85%
[14]
  inhibition: Active
